# From patent publication US8912186B2, “Allosteric protein kinase modulators” (Universitaet des Saarlandes, priority 2008, dated 2014)
# Assays:
# PDK1 [1] = target: T1, PDK1 (Homo sapiens, UniProt O15530); assay: cell-free kinase activity assay (ATPgamma[32P], T308tide substrate); format: biochemical; conditions: n.e.: no effect
# T1 construct: GST
# T1 sequence (O15530 1-556): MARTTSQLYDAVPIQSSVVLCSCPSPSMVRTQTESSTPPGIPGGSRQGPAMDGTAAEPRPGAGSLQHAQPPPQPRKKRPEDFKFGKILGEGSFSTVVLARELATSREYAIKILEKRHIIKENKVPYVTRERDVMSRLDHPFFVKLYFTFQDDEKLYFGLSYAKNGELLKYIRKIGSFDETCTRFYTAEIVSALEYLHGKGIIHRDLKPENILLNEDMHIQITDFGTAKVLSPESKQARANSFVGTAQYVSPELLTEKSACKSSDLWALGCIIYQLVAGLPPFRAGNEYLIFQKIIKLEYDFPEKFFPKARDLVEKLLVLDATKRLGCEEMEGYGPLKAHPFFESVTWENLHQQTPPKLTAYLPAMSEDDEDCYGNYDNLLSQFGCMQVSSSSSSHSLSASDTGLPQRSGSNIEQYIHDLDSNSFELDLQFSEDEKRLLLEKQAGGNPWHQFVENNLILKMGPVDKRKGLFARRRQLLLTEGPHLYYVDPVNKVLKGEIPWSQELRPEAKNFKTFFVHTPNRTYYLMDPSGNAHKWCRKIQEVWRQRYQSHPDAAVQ
# How it was run: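 Radiometric ATPγ[32P] kinase assay; for PDK1, 200 ng enzyme with 1 mM T308tide substrate, run at room temperature for 30 min. Reaction started with ATP-Mg and stopped with phosphoric acid. Incorporated radioactivity measured after spotting on phosphocellulose paper and washing.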
# [2] = tested on: PC3 prostate carcinoma cells; assay: MTT assay, number of living cells; format: cell-based; conditions: 36 h; for number of PC3 cells as compared to the DMSO-treated control (proliferation / cell death): serum starved, IGF-I, 5% FCS
# Experimental: Cells were serum starved overnight and stimulated or not with 50 μg/ml IGF-I, then test compounds and 5% FCS were added, and cells grown for 36 h. A standard MTT assay was then performed to measure the number of living cells.
# To measure the potency of selected compounds to inhibit growth of a cancer cell line, the widely established MTT assay was used. The assay principle relies on the formation of a purple formazan dye from MTT which has been added to the cultured cells due to mitochondrial reductase activity in intact cells. After 3-4 hours of cell incubation with MTT, formazan crystals develop in living and early apoptotic cells but not in dead cells. MTT is suitable for measuring cell proliferation and cell viability.
# Thus the cell's viability critically relies on high activities of this pathway but on the other hand it requires highly efficient inhibitors to hit the cells.
# PDK1 [3] = target: T2, PDK1 (Homo sapiens, UniProt O15530); assay: TNP-ATP fluorescence probe of the ATP binding site conformation; conditions: for TNP-ATP fluorescence intensity in the presence of PDK1: addition to the TNP-ATP-PDK1 mixture
# T2 construct: maximal fluorescence intensity of TNP-ATP obtained with addition of 15 μM PDK1 CD
# T2 sequence (O15530 82-342 limits assumed): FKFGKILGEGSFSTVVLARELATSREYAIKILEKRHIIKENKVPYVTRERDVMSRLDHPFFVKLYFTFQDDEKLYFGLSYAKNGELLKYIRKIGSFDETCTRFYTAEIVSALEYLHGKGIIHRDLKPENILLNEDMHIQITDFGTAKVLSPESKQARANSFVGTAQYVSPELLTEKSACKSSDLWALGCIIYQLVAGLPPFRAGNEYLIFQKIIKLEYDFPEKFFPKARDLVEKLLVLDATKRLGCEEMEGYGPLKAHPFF
# Experimental: In order to shed further light on the conformational change induced by the binding of small compounds to the PIF-binding pocket of PDK1, we developed a method to probe the ATP binding site conformation in solution with the use of a fluorescent ATP analogue, trinitrophenyl-ATP (TNP-ATP; FIG. 5A). […] Since the decrease in fluorescence intensity was also measured with phosphorylated HM polypeptides and PIFtide, it is likely that the ATP-binding site conformational change measured was actually related to the equivalent events that activate PDK1 by low molecular weight compounds and HM-polypeptides.
# (A) TNP-ATP formulae. (B, C and D) Fluorescence intensities are expressed as % of the maximal fluorescence intensity of TNP-ATP obtained with addition of 15 μM PDK1 CD. (B) Effect of PDK1 addition on TNP-ATP fluorescence. (C) Addition of PS08 to the TNP-ATP-PDK1 mixture triggered a concentration dependent decrease of the fluorescence intensity. At 167 μM PS08 (=PS-T-8), the maximum fluorescence intensity was 60%, similar to TNP-ATP alone. (D) Effect of 167 μM PS133, the isomer compound PS08 to the TNP-ATP-PDK1.
smiles,measurement,setting,value
"O=C(O)/C=C(/CSc1ccc(Cl)cc1)c1ccccc1 [PS 99, (E)-4-(4-Chlorophenylthio)-3-phenylbut-2-enoic acid]",AC50,PDK1 [1]; concentration of the compound required to activate half maximally,22.8 µM
same,max. activation of PDK1 (fold),"PDK1 [1]; maximum activation achievable, compared to the basal activity of PDK1",2.6 fold
same,concentration at which effects were detectable,[2]; PC3 cells,10 to 20 µM
same,number of PC3 cells as compared to the DMSO-treated control (proliferation / cell death),[2],can inhibit the proliferation of/or induce cell death of cancer cells
same,number of PC3 cells as compared to the DMSO-treated control (proliferation / cell death),[2]; listed as PS99,significantly reduced
"O=C(O)/C=C(\CCc1ccc(Br)cc1F)c1ccccc1 [PS 133, (E)-5-(4-Bromo-2-fluorophenyl)-3-phenylpent-2-enoic acid]",TNP-ATP fluorescence intensity in the presence of PDK1,PDK1 [3],did not affect
"O=C(O)/C=C(/CCc1ccc(Br)cc1F)c1ccccc1 [PS-T8, (Z)-5-(4-Bromo-2-fluorophenyl)-3-phenylpent-2-enoic acid]",maximum fluorescence intensity of TNP-ATP,"PDK1 [3]; 167 μM compound, % of the maximal fluorescence intensity of TNP-ATP obtained with 15 μM PDK1 CD",60%
same,TNP-ATP fluorescence intensity in the presence of PDK1,PDK1 [3],concentration-dependent decrease
"CO[C@H]1C[C@@H]2CC[C@@H](C)[C@@](O)(O2)C(=O)C(=O)N2CCCC[C@H]2C(=O)O[C@H]([C@H](C)C[C@@H]2CC[C@@H](O)[C@H](OC)C2)CC(=O)[C@H](C)/C=C(\C)[C@@H](O)[C@@H](OC)C(=O)[C@H](C)C[C@H](C)/C=C/C=C/C=C/1C [rapamycin, reference compound]",EC50,"[2]; Homo sapiens, PC-3, PC3 cells, control drug",~1 µM
